Assay results published in patent US10202403B2, “Macrocyclic benzofuran compounds for the treatment of hepatitis C” (BRISTOL-MYERS SQUIBB COMPANY, priority 2014, dated 2019).

Test system: genotype 1b (Con-1) HCV replicon
Assay: HCV replicon luciferase assay
Type: cell-based, HCV genotype 1b (Con-1) in human Huh-7 cells
Conditions: Hepatitis C virus, 72 h; genotype 1b replicon, Huh-7, Renilla luciferase, 3 days incubation
Experimental: Cell Lines. The cell lines used to evaluate compounds consist of a human hepatocyte derived cell line (Huh-7) that constitutively expresses a genotype 1b (Con-1) HCV replicon or a genotype 1b (Con-1) HCV replicon with an asparagine replacing the cysteine at amino acid 316, or a genotype 2a (JFH-1) replicon, containing a Renilla luciferase reporter gene. These cells were maintained in Dulbecco's modified Eagle medium (DMEM) containing 10% FBS, 100 U/mL penicillin/streptomycin and 1.0 mg/mL G418.
HCV replicon luciferase assay.To evaluate compound efficacy, titrated compounds were transferred to sterile 384-well tissue culture treated plates, and the plates were seeded with HCV replicon cells (50 μL at a density of 2.4×10^3 cells/well) in DMEM containing 4% FBS (final DMSO concentration at 0.5%). After 3 days incubation at 37° C., cells were analyzed for Renilla Luciferase activity using the EnduRen substrate (Promega cat #E6485) according to the manufacturer's directions. Briefly, the EnduRen substrate was diluted in DMEM and then added to the plates to a final concentration of 7.5 μM. The plates were incubated for at least 1 hour at 37° C., then read on a Viewlux Imager (PerkinElmer) using a luminescence program. The 50% effective concentration (EC50) was calculated using the four-parameter logistic formula noted above.

SMILES | EC50
CNC(=O)c1c(-c2ccc(F)cc2)oc2ccc3c(c12)Cc1ccccc1-c1ccccc1CO3 [Compound 1003] | 2.84 µM
CNC(=O)c1c(-c2ccc(F)cc2)oc2ccc3c(c12)CCCCCCCCCCCO3 [Compound 1012] | 0.53 µM
CNC(=O)c1c(-c2ccc(F)cc2)oc2ccc3c(c12)Cc1cccc(c1)COc1ccc2oc(-c4ccc(F)cc4)c(C(=O)NC)c2c1Cc1cccc(c1)CO3 [Compound 2004] | > 10 µM
CNC(=O)c1c(-c2ccc(F)cc2)oc2ccc3c(c12)CCN(S(=O)(=O)c1ccc(C)cc1)CCO3 [Compound 1014] | > 10 µM
CNC(=O)c1c(-c2ccc(F)cc2)oc2ccc3c(c12)CCCCCCCCCCCCO3 [Compound 1013] | 1.51 µM
C=CC1Cc2c(ccc3oc(-c4ccc(F)cc4)c(C(=O)NC)c23)O1 (centres unmarked) [Compound 1002] | 0.672 µM
CNC(=O)c1c(-c2ccc(F)cc2)oc2ccc3c(c12)CCCCCCCCCO3 [Compound 1010] | 1.63 µM
C=C1COc2ccc3oc(-c4ccc(F)cc4)c(C(=O)NC)c3c2CC(=C)COc2ccc3oc(-c4ccc(F)cc4)c(C(=O)NC)c3c2C1 [Compound 2002] | 3.65 µM
CNC(=O)c1c(-c2ccc(F)cc2)oc2ccc3c(c12)CC=CCO3 [Compound 1001] | 2.08 µM
CNC(=O)c1c(-c2ccc(F)cc2)oc2ccc3c(c12)CCOCCOCCO3 [Compound 1006] | > 10 µM
CNC(=O)c1c(-c2ccc(F)cc2)oc2ccc3c(c12)CCCCCCCCO3 [Compound 1009] | 2.08 µM
CNC(=O)c1c(-c2ccc(F)cc2)oc2ccc3c(c12)CCc1cccc(c1)CCO3 [Compound 1005] | > 10 µM
CNC(=O)c1c(-c2ccc(F)cc2)oc2ccc3c(c12)CCCCCCCCCCO3 [Compound 1011] | 1.08 µM
CNC(=O)c1c(-c2ccc(F)cc2)oc2ccc3c(c12)Cc1cccc(n1)COc1ccc2oc(-c4ccc(F)cc4)c(C(=O)NC)c2c1Cc1cccc(n1)CO3 [Compound 2001] | 6.67 µM
CNC(=O)c1c(-c2ccc(F)cc2)oc2ccc3c(c12)CCCCCCO3 [Compound 1007] | 1.29 µM
CNC(=O)c1c(-c2ccc(F)cc2)oc2ccc3c(c12)CC1(CC1)COc1ccc2oc(-c4ccc(F)cc4)c(C(=O)NC)c2c1CC1(CC1)CO3 [Compound 2005] | 0.931 µM
CNC(=O)c1c(-c2ccc(F)cc2)oc2ccc3c(c12)CCCCCCCO3 [Compound 1008] | 1.82 µM
CNC(=O)c1c(-c2ccc(F)cc2)oc2ccc3c(c12)Cc1cccc2cccc(c12)CO3 [Compound 1004] | > 10 µM

Test system: HCV
Assay: not given
Conditions: extended dosing of the combination regimens; development suspended; cited from earlier work

SMILES | hepatic toxicity
CNC(=O)c1c(-c2ccc(F)cc2)oc2cc(N(CCO)S(C)(=O)=O)c(C3CC3)cc12 [HCV-796] | hepatic toxicity observed

Same assay, conditions: patients; single agent: transient decrease then rebound; more robust drop with interferon and ribavirin; cited from earlier work

SMILES | HCV RNA levels in patients
CNC(=O)c1c(-c2ccc(F)cc2)oc2cc(N(CCO)S(C)(=O)=O)c(C3CC3)cc12 [HCV-796] | reduce HCV RNA levels in patients
